“Also recorded” adds a separate entry of the source. Primed or numbered codes have the meaning given here. No end group written: not given here. FITC′ = not defined here
Legend:
[1] = target: T1, XIAP (X-linked inhibitor of apoptosis protein) (Homo sapiens, UniProt P98170); assay: Inhibition of XIAP function: UV-induced apoptosis of XIAP-transfected Jurkat E6 cells (Annexin V FACS); type: cell-based; conditions: 0.1, 0.5, 1 μg/ml peptide, 2 hr
T1 construct: expressed in transfected cells; host or cells: Jurkat E6
T1 sequence (P98170 whole entry, species assumed): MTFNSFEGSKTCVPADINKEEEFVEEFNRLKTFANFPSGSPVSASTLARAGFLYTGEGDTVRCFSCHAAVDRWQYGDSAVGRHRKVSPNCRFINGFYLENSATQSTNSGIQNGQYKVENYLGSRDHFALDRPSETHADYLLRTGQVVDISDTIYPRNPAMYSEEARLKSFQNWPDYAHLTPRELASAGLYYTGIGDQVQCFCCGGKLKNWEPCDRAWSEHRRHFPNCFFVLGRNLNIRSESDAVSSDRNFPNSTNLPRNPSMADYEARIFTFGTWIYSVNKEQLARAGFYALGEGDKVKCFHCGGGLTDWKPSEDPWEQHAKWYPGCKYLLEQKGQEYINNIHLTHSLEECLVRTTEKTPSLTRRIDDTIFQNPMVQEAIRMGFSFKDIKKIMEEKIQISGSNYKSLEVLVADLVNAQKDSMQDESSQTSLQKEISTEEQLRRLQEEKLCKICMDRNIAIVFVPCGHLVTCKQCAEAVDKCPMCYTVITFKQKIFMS
Experimental: Since the first amino acid, alanine, of the 7-amino acid sequence at the N-terminal of the Smac/DIABLO peptide is pivotal in binding to XIAP, as reported previously, CTP was linked to C-terminal of the Smac/DIABLO peptide to prepare Smac/Diablo-CTP-FITC peptide. For detection, FITC was conjugated at the C-terminal of the peptide: Smac/Diablo-CTP-FITC ([…]-FITC).
Jurkat E6 (2×10^5 cell/ml) were transfected with 10 μg of pcDNA3-XIAP using a transfection reagent, GenePORTER 2 (1 μl/μg DNA) and cultured for 2 days at 37° C. in RPMI containing 10% FBS. Two days later, the cells were washed twice with 1× PBS, and treated with Smac/Diablo-CTP-FITC peptide (synthesized at HHMI, KECK BIOTECHNOLOGY RESOURCE CENTER) for 2 hr at 37° C. in a serum free media at concentrations of 0.1 μg/ml, 0.5 μg/ml and 1 μg/ml. Then, to measure the extent of apoptosis, the cells were exposed to UV light (40 W) for 50 sec in a culture hood. After 6 hr, the cells were washed twice with 1 × PBS and the apoptozed cells were measured by FACS using Annexin V-FITC apoptosis detection kit (BD Biosciences Pharmingen. Cot: 556547).

HeLa cells [2] = assay: Transduction potential of CTP-β-gal following treatment with trypsin (staining); type: cell-based; conditions: 50 μg/ml, 20 hr, trypsin before fixation
Experimental: HeLa cells were cultured for 1 day in DMEM (high glucose) at a density of 2×10^5/ml in 48-well plates. Cells were washed once with 1× PBS, and then incubated further for additional 20 hr in OPTI-MEM containing PTD-β-gal, MTS-β-gal, CTP501-β-gal or CTP514-β-gal, respectively, at a concentration of 50 μg/ml. Thereafter, the cells were treated with trypsin-EDTA (10×) for 3 min at 37° C. to remove the CPP-β-gal attached to the cell surface, and then rinsed twice with 1× PBS, followed by fixing with a fixation solution for 10 min at room temperature. After washing twice with 1× PBS, the cells were stained with a staining solution for 2 hr at 37° C. and photographed under a microscope (FIG. 6b).

HeLa cells [3] = assay: Subcellular localization of CTP-β-gal by confocal scanning microscope; type: cell-based; conditions: β-galactosidase fusion protein, 100 μg/ml, 1 hr
Text: To select cytoplamic transduction peptides (CTPs) of interest, HeLa cells were transduced with CTP-β-galactosidase, and then examined under the confocal scanning microscope. Before the confocal analysis, cells were stained with mouse anti-β-galactosidase antibody and 2nd antibodies conjugated with FITC (Fluorescence-iso-thio-cyanate) or with PE (phycoerythrin) together with DNA staining reagent (green fluorescence SYTO-16 DNA staining dye, Molecular Probe). First, HeLa cells (5×10^5 cells/ml) were plated onto a 6-well plate containing sterilized cover-slips and cultured overnight at 37° C. CO2 incubator. The cells were washed with PBS (pH 7.4) and 1 ml of an OPTI-MEM I medium was added, followed by treatment with candidate CTP-fused proteins (100 μg/ml). As a positive control, PTD-β-galactosidase fusion protein was employed, and as a negative control, only β-galactosidase protein was used. Following the treatment with candidate CTP-β-galactosidase fusion proteins, cells were incubated for 1 hr at 37° C. incubator. The cells were rinsed three times with PBS and fixed with 2% paraformaldehyde for 20 min at 4° C. HeLa cells fixed were washed twice with washing buffer (PBS containing 0.2% BSA and 0.02% sodium azide). To stain the cells with antibody, cells were pre-treated with 0.5% Triton X-100 (in PBS, Sigma) at 4° C. for 20 min. Cells were washed three times with washing buffer and then stained with mouse anti-β-galactosidase antibody (diluted 1:2,000, Sigma) for 1 hr at 4° C. as a primary antibody and then washed three times with washing buffer. Cells were then incubated with FITC-conjugated goat anti-mouse IgG (diluted 1:2,000, Jackson Laboratory) as a secondary antibody for 20 min at 4° C. Washed 3 times with the same washing buffer, cells were fixed on a slide glass with fluorescence mounting medium (DAKO) and the edge of slide glass was sealed with nail vanish.
Double staining was carried out with SYTO-16 DNA staining dye as follows: First, the cells were incubated with the primary antibodies under the same conditions and rinsed three times. Then, the cells were incubated at 4° C. for 20 min with PE-conjugated goat anti-mouse IgG PE (diluted 1:2,000, Jackson Laboratory). Washed three times with washing buffer, cells were incubated with SYTO-16 DNA staining dye (diluted 1:1,000, DAKO) for 20 min at 4° C. Cells were fixed and sealed on a slide glass and then examined under a confocal laser scanning microscope.
In the present experiment, LEICA TCS NT SP confocal microscope (LEICA Lasertech GmbH, Heidelverg, Germany) was employed, which was equipped with lager generator of argon (Ar) and krypton (Kr), scanning device, and filter capable of detecting FITC (510–550 nm) and PE (600–660) at independent channel. Photographs were taken by PL-APO X100 objective. For single staining, the cells were sectioned into 4-layers and fluorescence and transmission photographs were taken. For double staining, FITC, PE, and transmission photographs were taken using optimal respective filter.

HeLa cells [4] = assay: Transduction of PTD- and CTP-β-galactosidase into HeLa cells (X-gal staining after fixation); type: cell-based; conditions: 100 μg/ml, 1 hr; for transduction potential: β-galactosidase fusion protein, HeLa cells, fixation; for order of transduction potentials into HeLa cells: β-galactosidase fusion, X-gal staining
Text: Although various other substitutions could be performed, it is essential in this invention that the introduction of a positive charge by arginine and the substitution by an α-helix stabilizing amino acid should be carried out for maintaining the principle function of the PTD peptide. Therefore, as a substitute amino acid, the positively charged amino acid is restricted to arginine, and the negatively charged amino acid is restricted to glutamic acid. β-galactosidase was fused to the CTP candidate peptide, the fusion proteins were isolated and purified (see FIG. 2), and HeLa cells were treated with each of the fusion proteins. This was then followed by an analysis of the transduction potential and a determination of the extent of the cytoplasmic remaining property.
The transduction potential of the PTD and CTP candidates was tested with HeLa cells. Using a 24-well plate (Nunc), 5×10^4 HeLa cells were inoculated into high glucose DMEM (containing 10% FBS) and cultured for 36 hr. The cells were rinsed with PBS and treated with 100 μg/ml of PTD- and CTP-β-galactosidase in an opti-MEM I medium. After 1-hr incubation, cells were fixed for 10 min at room temperature with a fixation solution (2% formaldehyde, 0.2% glutaraldehyde in PBS). Then, the cells were rinsed twice with PBS, and stained for 2 hr with dye (0.1% X-gal, 5 mM potassium ferricyanide, 5 mM potassium ferrocyanide, 2 mM MgCl2 in PBS) to examine their transduction potential (see FIG. 3). The samples showing a low level of staining, even after a 2-hr staining, were incubated overnight, and then stained for the relative transduction potential. The transduction potentials of the PTD and CTP candidates into HeLa cells were seen to be in the following order: PTD5<CTP502<<CTP501=CTP506<CTP507<CTP505<CTP503=CTP504<CTP508=CTP510=MTS<CTP509<<PTD=CTP511<<CTP512.

HeLa cells [5] = assay: Subcellular localization of CTP-FITC by confocal microscope without cell fixation; type: cell-based; conditions: FITC-labeled peptide, 25 μg/ml, 1 hr
Text: Fixation step is inevitable for examining the subcellular localization of the transduced β-gal in the cells with antibodies. However, according to the previous reports, the fusion protein attached to cell surface is very likely to be introduced into the cell during a cell fixation procedure, which may affect its transduction potential and its subcellular localization. However, FITC-labeled membrane permeation peptides allow its subcellular localization to be observed under a confocal microscope without cell fixation. Monolayered HeLa cells were treated for 1 hr with FITC-labeled CTP, PTD or MTS at a concentration of 25 μg/ml, and washed three times with HBSS, followed by observation under a confocal microscope without cell fixation.

[6] = cited from earlier work
[7] = set-up: species or system BALB/c mice; conditions: mouse, in vivo, iv
Experimental: To elucidate whether the CTP of this invention can deliver its fusion partner into cells in vivo as well as into cells in vitro, BALB/c mice were injected i.p. with 25 μg/(g of mouse) of CTP-β-gal, PTD-β-gal, MTS-β-gal fusion protein or β-gal protein, or injected i.v. via tail vein with 100 μg/mouse of fusion proteins. Four hr after injection, mice were euthanized and skinned, and their peritoneal cavities were dissected, followed by washing three times with a PBS buffer. After fixation with a fixing solution, whole body was stained in X-gal solution. Each organ was extracted and the β-gal activity was measured.

HeLa cells [8] = assay: Kinetics on the transduction of CTP-β-gal and PTD-β-gal; type: cell-based; conditions: trypsin prior to cell harvest
Experimental: The Membrane permeability of CTP-β-gal and PTD-β-gal was analyzed in kinetics. Cells were treated with the fusion protein and lysed with 0.9% Triton X-100 solution without trypsinization, after which the overall β-gal activity in the cells was measured. Furthermore, in order to measure the authentic trnsduction amount of β-gal imported into the cells, the cells were trypsinized following the treatment with fusion protein, and then examined the amount of the β-gal activity imported into the cells in the same conditions (see FIG. 8).

[9] = mouse, in vivo
Experimental: CTP-β-gal was administered via the peritoneal cavity or a tail vein of mice. Four hr later, organs such as thymus, heart, spleen, liver and kidney were extracted. The organs rapidly frozen were sectioned with a microtome, and then incubated overnight in a X-gal reaction solution, followed by observation of the β-gal activity under a microscope.

Substance: AVPIAQKSEGGRRARRRRRRK-FITC (AVPIAQKSEGGRRARRRRRRK-{FITC′}) [Smac/Diablo-CTP-FITC, N-terminal Smac/DIABLO peptide linked to CTP, FITC at the C-terminal]
- apoptosis of cells transfected with 10 μg pcDNA-XIAP DNA [1]: greatly increased

Substance: CTP511: CTP candidate (2G4R8R), sequence YGRRARRRARR
- β-gal activity transduced into cells (HeLa cells [2]): almost equivalent to that of the PTD
- cytoplasmic remaining property / subcellular localization (HeLa cells [3]): significantly high
- cytoplasmic remaining property / subcellular localization (HeLa cells [3]; listed as CTP 511): excellent cytoplasmic remaining property
- transduction potential (HeLa cells [4]): transduction potential similar to the wild type PTD; also recorded: significantly high transduction potential
- transduction potential (HeLa cells [4]; listed as CTP 511): transduction potential identical to PTD
- order of transduction potentials into HeLa cells (HeLa cells [4]): PTD=CTP511<<CTP512

Substance: CTP513: CTP (2G4R5R8R9R), sequence YGRRRRRRRRR
- β-gal activity transduced into cells (HeLa cells [2]): much more efficient to transduce β-gal into cells than either PTD or MTS
- order of transduction potential (HeLa cells [5]): CTP512>513>>514
- subcellular localization (HeLa cells [5]): observed only in the cytoplasm, and not in the nucleus

Substance: CTP514: CTP (2R4R5R8R9R), sequence YRRRRRRRRRR
- β-gal activity transduced into cells (HeLa cells [2]): almost equivalent to that of the PTD
- subcellular localization (HeLa cells [5]): observed only in the cytoplasm, and not in the nucleus

Substance: PTD5: PTD derivative of the Dowdy group; differs from CTP504 only by alanine at position 2, i.e. YARAARRAARR (CTP50, Table 1) [reference compound]
- efficiency of delivering peptides into the cell, higher than PTD (TAT) ([6]; peptides, reported by the Dowdy group): 8 fold
- cytoplasmic remaining property / subcellular localization (HeLa cells [3]): relatively increased pattern in terms of the extent it remains in the cytoplasm as compared to PTD
- order of transduction potentials into HeLa cells (HeLa cells [4]): PTD5<CTP502

Substance: RRRRRRRRR [Arg polycationic homopolymer]
- transduction efficiency greater than Tat PTD ([6]; Wender et al., 2000): 20 fold

Substance: β-gal: only β-galactosidase protein, negative control
- β-gal activity in auxiliary, inguinal and popliteal lymph nodes [7]: not observed
- transduction potential / import into cells over time (HeLa cells [8]): not to be imported into cells with the lapse of time
- β-gal activity in organ sections (thymus, heart, spleen, liver, kidney) [9]: little or no β-gal activity in the inner side
